{"source": "paper PMC10313368", "about": "(The Journal of Clinical Investigation, 2023)", "key": {"[1]": {"test_system": "HIF-regulated angiogenic mediators", "experiment": "mRNA expression of HIF-regulated vasoactive mediators in OIR mouse retina (qPCR)", "assay_type": "in vivo", "protocol": "Reverse transcription and quantitative real-time PCR. Total RNA was isolated from cultured cells or retinas with PureLinkTM RNA Mini Kit (Invitrogen #12183025), and cDNA was prepared with MuLV Reverse Transcriptase (Applied Biosystems). Quantitative real-time PCR was performed with Power SYBR Green PCR Master Mix (Applied Biosystems) and MyiQ Real-Time PCR Detection System (Bio-Rad). Normalization was done using cyclophilin A for mouse tissue and human cell lines. Primers are listed in Supplemental Table 2. […]\nAnimal studies. Eight-week-old pathogen-free female C57BL/6 mice were obtained from The Jackson Laboratory (JAX). Timed pregnant C57BL/6 mice were obtained from Charles River Laboratories. Mice heterozygous for HIF-1α have been previously described (2). Mice heterozygous for HIF-2α (strain number: 003266; common name: EPAS1 KO) were purchased […]\nOIR mouse model. OIR experiments were performed as previously described (1, 3). Briefly, C57BL/6 mice were placed in 75% O2 on P7. On P12, the mice were returned to room air and were […]\n(or vehicle) by intravitreal injection. Mice with body weight less than 6 g at P17 were excluded […]\nfrom analysis. Data were collected from both males and females and the results were combined since there was no apparent difference between sexes. Representative images for selected time points from a minimum of three independent experiments are shown. Data from 3-8 pups were obtained at each time point. […]\nIntraperitoneal (IP) injections. […]\nintraperitoneally using an insulin syringe in OIR pups. […]\nthe peritoneal cavity of neonatal C57BL/6 mice and STZ mice at indicated times, and the retinal vasculature and lysates for WB and qPCR were assessed at P17.\nIntraocular injections. Intravitreal injections were performed with a PLI-100A Pico-liter Microinjector (Warner Instruments, Harvard Bioscience) using pulled-glass micropipettes. Each micropipette was calibrated to deliver a 1 μl volume on depression of a foot switch. The mice were anesthetized with a ketamine (100 mg/kg) and xylazine (5mg/kg) mixture, and under a dissecting microscope, the sharpened tip of the micropipette was passed through the sclera just posterior to the limbus into the vitreous cavity and the foot switch was depressed, which caused fluid to […]"}, "[2]": {"experiment": "Mouse pharmacokinetics in retina after intraocular injection (LC-MS/MS)", "assay_type": "in vivo", "conditions": "for AUC % Extrapolated / AUClast / Cmax / half-life / Tmax: retina; for half-life / Tmax: C57BL/6, mouse, topical or ocular; for half-life: 280 ng", "protocol": "intraocular injection. Mice (at least 3 mice per time point) were euthanized at 1, 3, 7, or 14 days after injection. For the 280-ng dose, a 10-day time point was added. […]\nretina by LC-MS/MS as previously described (5) with the following modifications. Retina tissue samples were homogenized in 200 μL of 1× PBS (pH 7.4) before extraction. The standard curve and quality control samples were prepared in 1× PBS as a surrogate matrix. Retina tissue samples were then quantitated in µM as: nominal concentration (µM) × initial dilution ([tissue weight (mg) + volume of solvent (μl)]/ tissue weight (mg)). For all samples <10 nM, the value was reported as below the limits of detection. If at least on samples was >10 nM and one was <10 nM, then one half that value (5 nM) was imputed to calculate the concentration for that specimen and utilized in the average and standard deviation calculations.\nPharmacokinetic parameters were calculated from mean concentration-time data using noncompartmental methods in Phoenix WinNonlin version 8.3 (Certara, Princeton, NJ, USA). The Cmax and time to Cmax (Tmax) were the observed values. The AUClast was calculated using the log-linear trapezoidal method to the last quantifiable time point. The λz was determined from at least 3 points on the slope of the terminal phase of the concentration-time profile using a 1/y2 weighting factor. The T1/2 was determined by dividing 0.693 by λz. T1/2 was not reported if the correlation coefficient (r2) for λz was less than 0.9.\nBioanalytical method for mouse pharmacokinetics. Retina tissue samples were homogenized in 200 μL of 1× PBS (pH 7.4) before extraction. The standard curve and quality control samples were prepared in 1× PBS as a surrogate matrix for all matrices. Tissue homogenate or PBS (25 μL) was […]\nrespectively. Dwell time was 150 milliseconds. […]\nconstructed from the peak area ratio of the analyte to the peak area of its internal standard (EXP-3179) using the least-squares quadratic regression analysis with 1/x2 weight over the range of 10-2,110 nM with dilutions of up to 1:10 (v/v). […]"}, "[3]": {"conditions": "OIR+32-134D i.p. 20mg/kg, Figure 10C, replicates, 20 mg/kg"}, "[4]": {"conditions": "OIR+32-134D i.p. 20mg/kg, Figure 10D, replicates, 20 mg/kg"}, "[5]": {"conditions": "S Figure 4B, OIR mice, 14ng I.V., replicates"}, "[6]": {"conditions": "S Figure 4B, OIR mice, 70ng I.V., replicates"}}, "note": "Several values for one entry are separate records, joined by “and”; a condition that tells them apart may be missing. Equal entries are not always repeated. Where two headings read alike, the source gives them in different places.", "data": [{"smiles": "Brc1ccc2c(-c3csc(-c4c[nH]c5c(Br)cccc45)n3)c[nH]c2c1", "note": "[32-134D, 4-(6-bromo-1H-indol-3-yl)-2-(7-bromo-1H-indol-3-yl)thiazole]", "values": [{"measurement": "mRNA expression of key HIF-regulated vasoactive mediators in OIR mice (in words)", "setting": "[1]; 5 consecutive (P12–P16) i.p. injections 20 mg/kg 32-134D", "value": "marked reduction"}, {"measurement": "Vegfa mRNA", "setting": "[1]; Figure 14B, OIR mice, 14ng I.V., individual replicates", "value": "2.554 and 2.472 and 2.429"}, {"measurement": "Vegfa mRNA", "setting": "[1]; Figure 14B, OIR mice, 70ng I.V., individual replicates", "value": "1.453 and 1.941 and 2.696"}, {"measurement": "other key HIF-regulated angiogenic genes including Kdr, Angptl4, Epo, Serpine1 (in words)", "setting": "[1]; OIR mice P17, single intraocular 32-134D (70 ng, Supplemental Figure 4) at P12", "value": "moderate reduction"}, {"measurement": "Angptl4 mRNA", "setting": "[1]; [3]", "value": "1.959 and 1.886 and 1.828"}, {"measurement": "Epo mRNA", "setting": "[1]; [3]", "value": "15.9268 and 13.6786 and 15.0565"}, {"measurement": "Pdgfb mRNA", "setting": "[1]; [3]", "value": "7.756 and 6.2199 and 6.871"}, {"measurement": "Vegfa mRNA", "setting": "[1]; [3]", "value": "4.717 and 4.578 and 4.299"}, {"measurement": "Angpt2 mRNA", "setting": "[1]; [4]", "value": "1.455 and 1.394 and 1.541"}, {"measurement": "Kdr mRNA", "setting": "[1]; [4]", "value": "1.28 and 1.296 and 1.315"}, {"measurement": "Ptprb mRNA", "setting": "[1]; [4]", "value": "1.109 and 1.093 and 1.12"}, {"measurement": "Serpine1 mRNA", "setting": "[1]; [4]", "value": "18.6807 and 17.1616 and 18.3924"}, {"measurement": "Angptl4 mRNA", "setting": "[1]; [5]", "value": "1.665 and 1.591 and 1.559"}, {"measurement": "Epo mRNA", "setting": "[1]; [5]", "value": "8.623 and 9.0589 and 6.546"}, {"measurement": "Kdr mRNA", "setting": "[1]; [5]", "value": "1.18 and 1.183 and 1.04"}, {"measurement": "Serpine1 mRNA", "setting": "[1]; [5]", "value": "4.654 and 4.995 and 4.51"}, {"measurement": "Angptl4 mRNA", "setting": "[1]; [6]", "value": "1.678 and 1.5898 and 1.693"}, {"measurement": "Epo mRNA", "setting": "[1]; [6]", "value": "5.752 and 6.783 and 6.508"}, {"measurement": "Kdr mRNA", "setting": "[1]; [6]", "value": "1.345 and 1.2643 and 1.301"}, {"measurement": "Serpine1 mRNA", "setting": "[1]; [6]", "value": "6.417 and 6.411 and 5.108"}, {"measurement": "Vegfa mRNA expression in OIR mice (in words)", "setting": "[1]; single intraocular injection 32-134D 14 ng at P12", "value": "moderate reduction"}, {"measurement": "AUC % Extrapolated", "setting": "[2]; 70 ng eyeball", "value": 21.1, "unit": "%"}, {"measurement": "AUClast", "setting": "[2]; 70 ng eyeball", "value": 72.3, "unit": "nmol·days/g"}, {"measurement": "Cmax", "setting": "[2]; 70 ng eyeball", "value": 19.1, "unit": "nmol/g"}, {"measurement": "AUC % Extrapolated", "setting": "[2]; 280 ng eyeball", "value": 2.2, "unit": "%"}, {"measurement": "AUClast", "setting": "[2]; 280 ng eyeball", "value": 147, "unit": "nmol·days/g"}, {"measurement": "Cmax", "setting": "[2]; 280 ng eyeball", "value": 18, "unit": "nmol/g"}, {"measurement": "half-life", "setting": "[2]; 280 ng eyeball, read-out: T1/2 (converted)", "value": 42.2, "unit": "h"}, {"measurement": "half-life", "setting": "[2]; single 280 ng intraocular injection, read-out: t1/2 in retina (converted)", "value": 43.2, "unit": "h"}, {"measurement": "Tmax", "setting": "[2]; 70 ng eyeball", "value": 24, "unit": "h"}, {"measurement": "Tmax", "setting": "[2]; 280 ng eyeball", "value": 24, "unit": "h"}, {"measurement": "Cmax in neurosensory retina", "setting": "[2]; single 70 ng intraocular injection", "value": 19.1, "unit": "nmol/g"}, {"measurement": "AUClast in retina", "setting": "[2]; single 70 ng intraocular injection, over 14 days", "value": 72.3, "unit": "nmol·days/g"}, {"measurement": "Cmax in neurosensory retina", "setting": "[2]; single 280 ng intraocular injection", "value": 18, "unit": "nmol/g"}, {"measurement": "AUClast in retina", "setting": "[2]; single 280 ng intraocular injection, through 14 days", "value": 147, "unit": "nmol·days/g"}, {"measurement": "IC50 as used for time above IC50", "setting": "[2]; threshold in the pharmacokinetic calculation", "value": 3.51, "unit": "nmol/g"}]}]}
